Data published in PubChem BioAssay (NCI).
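48-hour exposure; five concentrations; linearly interpolated endpoints. The concentration for full growth arrest is given as TGI.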

Assays:
Test in all cases: NCI tumour cell line growth inhibition, 48 h
786-0 renal = tested on: 786-0 renal
A498 renal = tested on: A498 renal
A549 NSCLC = tested on: A549 NSCLC
ACHN renal = tested on: ACHN renal
BT-549 breast = tested on: BT-549 breast
CAKI-1 renal = tested on: CAKI-1 renal
COLO 205 colon = tested on: COLO 205 colon
DU-145 prostate = tested on: DU-145 prostate
EKVX NSCLC = tested on: EKVX NSCLC
HCT-116 colon = tested on: HCT-116 colon
HCT-15 colon = tested on: HCT-15 colon
HOP-62 NSCLC = tested on: HOP-62 NSCLC
HOP-92 NSCLC = tested on: HOP-92 NSCLC
HS 578T breast = tested on: HS 578T breast
HT29 colon = tested on: HT29 colon
IGROV1 ovarian = tested on: IGROV1 ovarian
K-562 leukemia = tested on: K-562 leukemia
KM12 colon = tested on: KM12 colon
LOX IMVI melanoma = tested on: LOX IMVI melanoma
M14 melanoma = tested on: M14 melanoma
MALME-3M melanoma = tested on: MALME-3M melanoma
MCF7 breast = tested on: MCF7 breast
MDA-MB-231 breast = tested on: MDA-MB-231 breast
MDA-MB-435 = tested on: MDA-MB-435
MDA-N = tested on: MDA-N
MOLT-4 leukemia = tested on: MOLT-4 leukemia
NCI-H226 lung = tested on: NCI-H226 lung
NCI-H23 lung = tested on: NCI-H23 lung
NCI-H460 lung = tested on: NCI-H460 lung
NCI-H522 lung = tested on: NCI-H522 lung
NCI/ADR-RES ovarian = tested on: NCI/ADR-RES ovarian
OVCAR-3 ovarian = tested on: OVCAR-3 ovarian
OVCAR-4 ovarian = tested on: OVCAR-4 ovarian
OVCAR-5 ovarian = tested on: OVCAR-5 ovarian
OVCAR-8 ovarian = tested on: OVCAR-8 ovarian
PC-3 prostate = tested on: PC-3 prostate
RPMI-8226 leukemia = tested on: RPMI-8226 leukemia
RXF 393 renal = tested on: RXF 393 renal
SF-268 CNS = tested on: SF-268 CNS
SF-295 CNS = tested on: SF-295 CNS
SF-539 CNS = tested on: SF-539 CNS
SK-MEL-2 melanoma = tested on: SK-MEL-2 melanoma
SK-MEL-28 melanoma = tested on: SK-MEL-28 melanoma
SK-MEL-5 melanoma = tested on: SK-MEL-5 melanoma
SK-OV-3 ovarian = tested on: SK-OV-3 ovarian
SN12C renal = tested on: SN12C renal
SNB-19 CNS = tested on: SNB-19 CNS
SNB-75 CNS = tested on: SNB-75 CNS
SR leukemia = tested on: SR leukemia
SW-620 colon = tested on: SW-620 colon
T-47D breast = tested on: T-47D breast
TK-10 renal = tested on: TK-10 renal
U251 CNS = tested on: U251 CNS
UACC-257 melanoma = tested on: UACC-257 melanoma
UACC-62 melanoma = tested on: UACC-62 melanoma
UO-31 renal = tested on: UO-31 renal
HCC-2998 colon = tested on: HCC-2998 colon

`c1cc(CNCCN2CCNCC2)ccn1` was tested. Which TGI (786-0 renal) did it give?
The TGI was greater than 100 µM.

And the TGI (A498 renal)?
Its TGI is greater than 100 µM.

What about the TGI (A549 NSCLC) of the same compound?
The TGI was greater than 100 µM.

What about the TGI (ACHN renal) of the same compound?
The TGI was greater than 100 µM.

And the TGI (BT-549 breast)?
Its TGI is greater than 100 µM.

What about the TGI (CAKI-1 renal) of the same compound?
Its TGI is greater than 100 µM.

What about the TGI (COLO 205 colon) of the same compound?
The TGI was greater than 100 µM.

And the TGI (DU-145 prostate)?
The TGI was greater than 100 µM.

And the TGI (EKVX NSCLC)?
Its TGI is greater than 100 µM.

And the TGI (HCT-116 colon)?
The TGI was greater than 100 µM.

And the TGI (HCT-15 colon)?
The TGI was greater than 100 µM.

What about the TGI (HOP-62 NSCLC) of the same compound?
Its TGI is greater than 100 µM.

What about the TGI (HOP-92 NSCLC) of the same compound?
The TGI was greater than 100 µM.

What about the TGI (HS 578T breast) of the same compound?
The TGI was greater than 100 µM.

And the TGI (HT29 colon)?
Its TGI is greater than 100 µM.

What about the TGI (IGROV1 ovarian) of the same compound?
Its TGI is greater than 100 µM.

What about the TGI (K-562 leukemia) of the same compound?
Its TGI is greater than 100 µM.

And the TGI (KM12 colon)?
Its TGI is greater than 100 µM.

What about the TGI (LOX IMVI melanoma) of the same compound?
The TGI was greater than 100 µM.

And the TGI (M14 melanoma)?
The TGI was greater than 100 µM.

What about the TGI (MALME-3M melanoma) of the same compound?
The TGI was greater than 100 µM.

What about the TGI (MCF7 breast) of the same compound?
Its TGI is greater than 100 µM.

And the TGI (MDA-MB-231 breast)?
The TGI was greater than 100 µM.

What about the TGI (MDA-MB-435) of the same compound?
The TGI was greater than 100 µM.

And the TGI (MDA-N)?
The TGI was greater than 100 µM.

And the TGI (MOLT-4 leukemia)?
Its TGI is greater than 100 µM.

What about the TGI (NCI-H226 lung) of the same compound?
The TGI was greater than 100 µM.

What about the TGI (NCI-H23 lung) of the same compound?
The TGI was greater than 100 µM.

What about the TGI (NCI-H460 lung) of the same compound?
Its TGI is greater than 100 µM.

What about the TGI (NCI-H522 lung) of the same compound?
The TGI was greater than 100 µM.

And the TGI (NCI/ADR-RES ovarian)?
The TGI was greater than 100 µM.

What about the TGI (OVCAR-3 ovarian) of the same compound?
The TGI was greater than 100 µM.

And the TGI (OVCAR-4 ovarian)?
Its TGI is greater than 100 µM.

What about the TGI (OVCAR-5 ovarian) of the same compound?
The TGI was greater than 100 µM.

What about the TGI (OVCAR-8 ovarian) of the same compound?
The TGI was greater than 100 µM.

And the TGI (PC-3 prostate)?
The TGI was greater than 100 µM.

What about the TGI (RPMI-8226 leukemia) of the same compound?
The TGI was greater than 100 µM.

What about the TGI (RXF 393 renal) of the same compound?
Its TGI is greater than 100 µM.

And the TGI (SF-268 CNS)?
The TGI was greater than 100 µM.

What about the TGI (SF-295 CNS) of the same compound?
The TGI was greater than 100 µM.

And the TGI (SF-539 CNS)?
Its TGI is greater than 100 µM.

And the TGI (SK-MEL-2 melanoma)?
The TGI was greater than 100 µM.

What about the TGI (SK-MEL-28 melanoma) of the same compound?
Its TGI is greater than 100 µM.

What about the TGI (SK-MEL-5 melanoma) of the same compound?
The TGI was greater than 100 µM.

What about the TGI (SK-OV-3 ovarian) of the same compound?
The TGI was greater than 100 µM.

And the TGI (SN12C renal)?
Its TGI is greater than 100 µM.

And the TGI (SNB-19 CNS)?
The TGI was greater than 100 µM.

What about the TGI (SNB-75 CNS) of the same compound?
Its TGI is greater than 100 µM.

What about the TGI (SR leukemia) of the same compound?
Its TGI is greater than 100 µM.

And the TGI (SW-620 colon)?
Its TGI is greater than 100 µM.

And the TGI (T-47D breast)?
Its TGI is greater than 100 µM.

And the TGI (TK-10 renal)?
The TGI was 86.7 µM.

What about the TGI (U251 CNS) of the same compound?
Its TGI is greater than 100 µM.

And the TGI (UACC-257 melanoma)?
The TGI was greater than 100 µM.

What about the TGI (UACC-62 melanoma) of the same compound?
Its TGI is greater than 100 µM.

And the TGI (UO-31 renal)?
The TGI was greater than 100 µM.

Which results are given for `Fc1ccc2nc3n(c2c1)C(c1c(Cl)cccc1Cl)SC3` (stereo unspecified)?
TGI (786-0 renal): > 100 µM; TGI (A498 renal): > 100 µM; TGI (A549 NSCLC): > 100 µM; TGI (ACHN renal): > 100 µM; TGI (BT-549 breast): > 100 µM; TGI (CAKI-1 renal): > 100 µM; TGI (COLO 205 colon): > 100 µM; TGI (DU-145 prostate): > 100 µM; TGI (HCC-2998 colon): > 100 µM; TGI (HCT-116 colon): > 100 µM; TGI (HCT-15 colon): > 100 µM; TGI (HOP-62 NSCLC): > 100 µM; TGI (HOP-92 NSCLC): > 100 µM; TGI (HS 578T breast): > 100 µM; TGI (HT29 colon): > 100 µM; TGI (IGROV1 ovarian): > 100 µM; TGI (KM12 colon): > 100 µM; TGI (LOX IMVI melanoma): > 100 µM; TGI (M14 melanoma): > 100 µM; TGI (MALME-3M melanoma): > 100 µM; TGI (MCF7 breast): > 100 µM; TGI (MDA-MB-231 breast): > 100 µM; TGI (MDA-MB-435): > 100 µM; TGI (MDA-N): > 100 µM; TGI (MOLT-4 leukemia): > 100 µM; TGI (NCI-H226 lung): > 100 µM; TGI (NCI-H23 lung): > 100 µM; TGI (NCI-H460 lung): > 100 µM; TGI (NCI-H522 lung): > 100 µM; TGI (NCI/ADR-RES ovarian): > 100 µM; TGI (OVCAR-3 ovarian): > 100 µM; TGI (OVCAR-4 ovarian): > 100 µM; TGI (OVCAR-5 ovarian): > 100 µM; TGI (OVCAR-8 ovarian): > 100 µM; TGI (PC-3 prostate): > 100 µM; TGI (RPMI-8226 leukemia): > 100 µM; TGI (RXF 393 renal): > 100 µM; TGI (SF-268 CNS): > 100 µM; TGI (SF-295 CNS): > 100 µM; TGI (SF-539 CNS): > 100 µM; TGI (SK-MEL-2 melanoma): > 100 µM; TGI (SK-MEL-28 melanoma): > 100 µM; TGI (SK-MEL-5 melanoma): > 100 µM; TGI (SK-OV-3 ovarian): > 100 µM; TGI (SN12C renal): > 100 µM; TGI (SNB-19 CNS): > 100 µM; TGI (SNB-75 CNS): > 100 µM; TGI (SR leukemia): > 100 µM; TGI (SW-620 colon): > 100 µM; TGI (T-47D breast): > 100 µM; TGI (TK-10 renal): > 100 µM; TGI (U251 CNS): > 100 µM; TGI (UACC-257 melanoma): > 100 µM; TGI (UACC-62 melanoma): > 100 µM; TGI (UO-31 renal): > 100 µM
